From patent US12595253B2, “Benzamides of pyrazolylamino-pyrimidinyl derivatives, and compositions and methods thereof” (LYNK PHARMACEUTICALS CO. LTD., priority 2019, dated 2026)

Assays:
Type in all cases: biochemical
[1] = target: T1, JAK1 (Homo sapiens, UniProt P23458); assay: JAK1 microfluidic kinase assay (Caliper EZ Reader II, FAM labeled peptide substrate); conditions: IC50 JAK1 (5 nM) (1 m MATP), JAK1 5 nM, 1 mM ATP
T1 construct: purchased Carna Biosciences
Method: (§1) Compounds were tested against JAK1, JAK2, JAK2V617F and TYK2. Assay Formats: JAK activity was determined in the reaction buffer 50 mM HEPES, 0.01% Brij35, 10 mM MgCl2, 2 mM DTT by a microfluidic assay. The phosphorylation of a FAM labeled peptide substrate was monitored in the Caliper EZ Reader II (Perkin Elmer). The assay condition for each batch of enzyme (Carna Biosciences) was optimized to obtain 10% conversion rate of peptide substrate. The test compounds were dissolved in DMSO to a stock concentration of 10 mM. 3-fold serially diluted compounds with top concentration of 5 μM were pre-incubated with JAK1, JAK2, JAK2V617F or TYK2 at indicated concentrations for 10 min at ambient temperature. The final DMSO concentration of assay mixture was 1%. […] The reaction was stopped by adding 50 mM EDTA. […] The percent inhibition was calculated by the following formula. % Inhibition=(Conversionmax−Conversionsample)/(Conversionmax−Conversionmin)*100 • Conversionmax means the conversion rate in the positive well without addition of compound • Conversionmin means the conversion rate in the well without addition of enzyme • Conversionsample means the conversion rate of test compounds The dose-response (percent inhibition) curve was plotted and IC50 values were determined by GraphPad software.

[2] = target: T2, JAK2V617F (Homo sapiens, UniProt O60674, V617F); assay: JAK2V617F microfluidic kinase assay (Caliper EZ Reader II, FAM labeled peptide substrate); conditions: JAK2V617F 2.5 nM, 1 mM ATP
T2 construct: purchased Carna Biosciences
Method: as §1

[3] = target: T3, JAK2 (Homo sapiens, UniProt O60674); assay: JAK2 microfluidic kinase assay (Caliper EZ Reader II, FAM labeled peptide substrate)
T3 construct: purchased Carna Biosciences
Method: as §1

T2 sequence (O60674 whole entry V617F): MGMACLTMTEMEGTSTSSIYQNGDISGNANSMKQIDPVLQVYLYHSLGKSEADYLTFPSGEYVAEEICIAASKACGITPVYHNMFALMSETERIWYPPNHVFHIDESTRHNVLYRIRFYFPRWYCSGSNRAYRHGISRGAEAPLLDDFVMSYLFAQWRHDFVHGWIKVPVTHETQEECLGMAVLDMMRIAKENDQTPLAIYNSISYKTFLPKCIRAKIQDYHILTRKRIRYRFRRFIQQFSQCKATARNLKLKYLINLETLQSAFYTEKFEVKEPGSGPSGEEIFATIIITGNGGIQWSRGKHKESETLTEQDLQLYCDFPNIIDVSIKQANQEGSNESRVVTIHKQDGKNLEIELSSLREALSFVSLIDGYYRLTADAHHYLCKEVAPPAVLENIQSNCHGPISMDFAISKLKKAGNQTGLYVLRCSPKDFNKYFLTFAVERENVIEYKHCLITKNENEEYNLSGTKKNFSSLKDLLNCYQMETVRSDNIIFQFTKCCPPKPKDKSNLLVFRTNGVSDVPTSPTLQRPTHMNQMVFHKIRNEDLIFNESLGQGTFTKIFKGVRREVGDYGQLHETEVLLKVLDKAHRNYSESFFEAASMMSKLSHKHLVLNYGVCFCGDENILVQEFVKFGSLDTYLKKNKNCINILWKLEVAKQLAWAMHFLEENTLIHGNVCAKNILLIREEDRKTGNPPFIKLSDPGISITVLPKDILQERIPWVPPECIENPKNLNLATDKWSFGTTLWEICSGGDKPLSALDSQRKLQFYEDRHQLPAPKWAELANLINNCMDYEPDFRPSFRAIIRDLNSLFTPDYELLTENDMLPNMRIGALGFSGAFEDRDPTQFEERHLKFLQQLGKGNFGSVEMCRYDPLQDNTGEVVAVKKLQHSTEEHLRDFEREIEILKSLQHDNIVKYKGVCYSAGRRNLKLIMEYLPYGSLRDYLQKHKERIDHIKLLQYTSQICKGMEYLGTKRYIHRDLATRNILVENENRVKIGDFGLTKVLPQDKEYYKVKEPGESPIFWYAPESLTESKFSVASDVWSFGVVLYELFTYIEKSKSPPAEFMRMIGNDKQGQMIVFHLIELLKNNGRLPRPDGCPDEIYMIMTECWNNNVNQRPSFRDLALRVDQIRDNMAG
T1 sequence (P23458 whole entry): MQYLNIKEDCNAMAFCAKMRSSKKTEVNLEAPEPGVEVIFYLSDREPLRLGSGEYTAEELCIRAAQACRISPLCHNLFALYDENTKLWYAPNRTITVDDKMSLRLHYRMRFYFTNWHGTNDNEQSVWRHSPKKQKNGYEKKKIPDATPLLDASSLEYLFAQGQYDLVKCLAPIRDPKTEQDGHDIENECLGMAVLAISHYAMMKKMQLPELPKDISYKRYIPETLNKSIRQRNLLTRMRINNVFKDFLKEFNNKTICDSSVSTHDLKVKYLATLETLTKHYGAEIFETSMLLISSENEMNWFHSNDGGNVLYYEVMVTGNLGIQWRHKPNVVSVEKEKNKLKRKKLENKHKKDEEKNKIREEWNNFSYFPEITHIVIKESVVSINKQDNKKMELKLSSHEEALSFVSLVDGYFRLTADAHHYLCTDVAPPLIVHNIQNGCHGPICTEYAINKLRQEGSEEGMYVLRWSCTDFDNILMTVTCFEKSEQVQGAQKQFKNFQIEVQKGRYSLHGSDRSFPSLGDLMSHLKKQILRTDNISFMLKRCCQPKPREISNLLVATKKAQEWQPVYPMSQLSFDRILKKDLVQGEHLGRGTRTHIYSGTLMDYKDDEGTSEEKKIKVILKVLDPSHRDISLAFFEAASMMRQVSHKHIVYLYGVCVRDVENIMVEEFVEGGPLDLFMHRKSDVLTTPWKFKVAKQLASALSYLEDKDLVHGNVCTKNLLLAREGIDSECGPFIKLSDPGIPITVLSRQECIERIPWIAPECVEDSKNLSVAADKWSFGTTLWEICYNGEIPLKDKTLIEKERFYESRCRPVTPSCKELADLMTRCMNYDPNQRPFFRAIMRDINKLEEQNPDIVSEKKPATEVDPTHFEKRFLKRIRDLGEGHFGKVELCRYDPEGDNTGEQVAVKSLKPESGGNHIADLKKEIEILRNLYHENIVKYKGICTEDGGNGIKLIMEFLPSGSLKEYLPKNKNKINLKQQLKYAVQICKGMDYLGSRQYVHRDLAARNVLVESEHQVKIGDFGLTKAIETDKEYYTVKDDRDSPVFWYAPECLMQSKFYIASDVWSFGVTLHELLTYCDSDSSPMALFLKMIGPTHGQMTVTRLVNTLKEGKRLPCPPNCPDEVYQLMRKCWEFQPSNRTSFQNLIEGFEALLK
T3 sequence (O60674 whole entry): as the sequence (O60674 whole entry V617F) above, with F617V counted along it

Row | Compound | IC50 [1] [nM] | IC50 [2] [nM] | IC50 ([3]; IC50 JAK2 ([…]) (1 mM ATP), 1 mM ATP) [nM] | IC50 ([3]; IC50 JAK2 ([…]) (Km ATP), Km ATP) [nM]
1 | Cc1cnc(Nc2cnn(C3CN(C(=O)C4CC4)C3)c2)nc1-c1ccc(C(=O)N[C@@H](C)C#N)cc1 [Example 71, (S)—N-(1-cyanoethyl)-4-(2-((1-(1-(cyclopropanecarbonyl)azetidin-3-yl)-1H-pyrazol-4-yl)amino)-5-methylpyrimidin-4-yl)benzamide] | 26 | 42.8 | – | –
2 | CC(=O)N1CC(n2cc(Nc3ncc(C)c(-c4ccc(C(=O)N[C@@H](C)C#N)cc4)n3)cn2)C1 [Example 157] | 22.2 | 33.1 | – | –
3 | Cc1cnc(Nc2cnn(C3CCN(C(=O)C4(O)CC4)CC3)c2)nc1-c1ccc(C(=O)NCC#N)cc1 [Example 74, N-(cyanomethyl)-4-(2-((1-(1-(1-hydroxycyclopropanecarbonyl)piperidin-4-yl)-1H-pyrazol-4-yl)amino)-5-methylpyrimidin-4-yl)benzamide] | 14.4 | 4.18 | – | –
4 | N#CCNC(=O)c1ccc(-c2nc(Nc3cnn(C4CC4)c3)ncc2C(F)F)cc1 [Example 110, N-(cyanomethyl)-4-(2-((1-cyclopropyl-1H-pyrazol-4-yl)amino)-5-(difluoromethyl)pyrimidin-4-yl)benzamide] | 152 | 556 | – | –
5 | Cc1cnc(Nc2cnn(C3CC(F)(F)C3)c2)nc1-c1ccc(C(=O)N[C@@H](C)C#N)cc1 [Example 155, (S)—N-(1-cyanoethyl)-4-(2-((1-(3,3-difluorocyclobutyl)-1H-pyrazol-4-yl)amino)-5-methylpyrimidin-4-yl)benzamide] | 480 | 1890 | – | –
6 | N#CCNC(=O)c1ccc(-c2nc(Nc3cnn(C4CCOCC4)c3)ncc2C(F)(F)F)cc1 [Example 153, N-(cyanomethyl)-4-(2-((1-(tetrahydro-2H-pyran-4-yl)-1H-pyrazol-4-yl)amino)-5-(trifluoromethyl)pyrimidin-4-yl)benzamide] | 235 | 283 | – | –
7 | Cc1cnc(Nc2cnn(C3CCCOC3)c2)nc1-c1ccc(C(=O)NCC#N)cc1 (centres unmarked) [Example 67, N-(cyanomethyl)-4-(5-methyl-2-((1-(tetrahydro-2H-pyran-3-yl)-1H-pyrazol-4-yl)amino)pyrimidin-4-yl)benzamide] | 17 | 27 | – | –
8 | CC[C@@H](C#N)NC(=O)c1ccc(-c2nc(Nc3cnn(C4CC4)c3)ncc2C)cc1 [Example 193, (S)—N-(1-cyanopropyl)-4-(2-((1-cyclopropyl-1H-pyrazol-4-yl)amino)-5-methylpyrimidin-4-yl)benzamide] | 1.5 | 42.6 | – | –
9 | C[C@@H](C#N)NC(=O)c1ccc(-c2nc(Nc3cnn(C4CC4)c3)ncc2Cl)cn1 [Example 121, (S)-5-(5-chloro-2-((1-cyclopropyl-1H-pyrazol-4-yl)amino)pyrimidin-4-yl)-N-(1-cyanoethyl)picolinamide] | 67.4 | 245 | – | –
10 | Cc1cnc(Nc2cnn(C3CC4CCC(C3)N4C(=O)C3(C)CC3)c2)nc1-c1ccc(C(=O)NCC#N)cc1 [Example 65, N-(cyanomethyl)-4-(5-methyl-2-((1-((1R,3r,5S)-8-(1-methylcyclopropanecarbonyl)-8-azabicyclo[3.2.1]octan-3-yl)-1H-pyrazol-4-yl)amino)pyrimidin-4-yl)benzamide] | 27.2 | 4.54 | – | –
11 | N#CCNC(=O)c1ccc(-c2nc(Nc3cnn(C4CCOCC4)c3)ncc2Cl)cc1 [Example 146, 4-(5-chloro-2-((1-(tetrahydro-2H-pyran-4-yl)-1H-pyrazol-4-yl)amino)pyrimidin-4-yl)-N-(cyanomethyl)benzamide] | 13.5 | 14.1 | – | –
12 | Cc1cnc(Nc2cnn(C3CCN(C(=O)C4(O)CC4)CC3)c2)nc1-c1ccc(C(=O)N[C@@H](C)C#N)cc1 [Example 79, (S)—N-(1-Cyanoethyl)-4-(2-((1-(1-(1-hydroxycyclopropanecarbonyl)piperidin-4=yl)-1H-pyrazol-4-yl)amino)-5-methylpyrimidin-4-yl)benzamide] | – | 0.44 | – | –
13 | CC(C)(C)C(=O)N1CCC(n2cc(Nc3ncc(F)c(-c4ccc(C(=O)NCC#N)cc4)n3)cn2)CC1 [Example 56, N-(cyanomethyl)-4-(5-fluoro-2-((1-(1-pivaloylpiperidin-4-yl)-1H-pyrazol-4-yl)amino)pyrimidin-4-yl)benzamide] | 167 | 52.6 | – | –
14 | Cc1cnc(Nc2cnn([C@H]3CC[C@H](C#N)CC3)c2)nc1-c1ccc(C(=O)NCC#N)cc1 [Example 147, 4-(2-((1-(Trans-4-cyanocyclohexyl)-1H-pyrazol-4-yl)amino)-5-methylpyrimidin-4-yl)-N-(cyanomethyl)benzamide] | 10.8 | 19.9 | – | –
15 | Cc1cnc(Nc2cnn(C3CCC(F)(F)CC3)c2)nc1-c1ccc(C(=O)N[C@@H](C)C#N)cc1 [Example 85, (S)—N-(1-cyanoethyl)-4-(2-((1-(4,4-difluorocyclohexyl)-1H-pyrazol-4-yl)amino)-5-methylpyrimidin-4-yl)benzamide] | 11.1 | 2.17 | – | –
16 | C[C@H](C#N)NC(=O)c1ccc(-c2nc(Nc3cnn(C4CCN(C)CC4)c3)ncc2F)cc1 [Example 63, (R)—N-(1-Cyanoethyl)-4-(5-fluoro-2-((1-(1-methylpiperidin-4-yl)-1H-pyrazol-4-yl)amino)pyrimidin-4-yl)benzamide] | 293 | 842 | – | –
17 | Cc1cnc(Nc2cnn(C3CCC(F)(F)CC3)c2)nc1-c1ccc(C(=O)NCC#N)cc1 [Example 84, N-(cyanomethyl)-4-(2-((1-(4,4-difluorocyclohexyl)-1H-pyrazol-4-yl)amino)-5-methylpyrimidin-4-yl)benzamide] | 11.1 | 13.2 | – | –
18 | Cc1cnc(Nc2cnn(C3CC4CCC(C3)N4C(=O)C3CC3)c2)nc1-c1ccc(C(=O)NCC#N)cc1 [Example 64, N-(cyanomethyl)-4-(2-((1-((1R,3r,5S)-8-(cyclopropanecarbonyl)-8-azabicyclo[3.2.1]octan-3-yl)-1H-pyrazol-4-yl)amino)-5-methylpyrimidin-4-yl)benzamide] | 33.7 | 40.9 | – | –
19 | CCC[C@@H](C#N)NC(=O)c1ccc(-c2nc(Nc3cnn(C4CC4)c3)ncc2C)cc1 [Example 202, (S)—N-(1-cyanobutyl)-4-(2-((1-cyclopropyl-1H-pyrazol-4-yl)amino)-5-methylpyrimidin-4-yl)benzamide] | 2.97 | 23.9 | – | –
20 | Cc1cnc(Nc2cnn(C3CCOCC3)c2)nc1-c1ccc(C(=O)N[C@H](C)C#N)cc1 [Example 96, (R)—N-(1-cyanoethyl)-4-(5-methyl-2-((1-(tetrahydro-2H-pyran-4-yl)-1H-pyrazol-4-yl)amino)pyrimidin-4-yl)benzamide] | 51.5 | 84.2 | – | –
21 | Cc1cnc(Nc2cnn(CC(F)F)c2)nc1-c1ccc(C(=O)NCC#N)cc1 [Example 27, N-(Cyanomethyl)-4-(2-((1-(2,2-difluoroethyl)-1H-pyrazol-4-yl)amino)-5-methylpyrimidin-4-yl)benzamide] | – | 104 | 50.2 | 1.97
22 | CC[C@@H](C#N)NC(=O)c1ccc(-c2nc(Nc3cnn(C4CCOCC4)c3)ncc2C)cc1 [Example 201, (S)—N-(1-cyanopropyl)-4-(5-methyl-2-((1-(tetrahydro-2H-pyran-4-yl)-1H-pyrazol-4-yl)amino)pyrimidin-4-yl)benzamide] | 2.22 | 3.03 | – | –
23 | Cc1cnc(Nc2cnn(CC(C)(C)C#N)c2)nc1-c1ccc(C(=O)NCC(F)(F)F)cc1 [Example 81, 4-(2-((1-(2-Cyano-2-methylpropyl)-1H-pyrazol-4-yl)amino)-5-methylpyrimidin-4-yl)-N-(2,2,2-trifluoroethyl)benzamide] | – | 114 | – | –
24 | Cc1cnc(Nc2cnn(C3C[C@H]4CC[C@@H](C3)O4)c2)nc1-c1ccc(C(=O)NCC#N)cc1 (stereo partly drawn) [Example 69, 4-(2-((1-((1R,5S)-8-oxabicyclo[3.2.1]octan-3-yl)-1H-pyrazol-4-yl)amino)-5-methylpyrimidin-4-yl)-N-(cyanomethyl)benzamide] | 14.3 | 21.9 | – | –
25 | Cc1cnc(Nc2cnn(C3CCOCC3)c2)nc1-c1ccc(C(=O)NCC(F)(F)F)cc1 [Example 76, 4-(5-Methyl-2-((1-(tetrahydro-2H-pyran-4-yl)-1H-pyrazol-4-yl)amino)pyrimidin-4-yl)-N-(2,2,2-trifluoroethyl)benzamide] | 7.47 | 6.93 | – | –
26 | Cc1cnc(Nc2cnn(C3CC3)c2)nc1-c1ccc(C(=O)N[C@H](C#N)C2CC2)cc1 [Example 194, (S)—N-(cyano(cyclopropyl)methyl)-4-(2-((1-cyclopropyl-1H-pyrazol-4-yl)amino)-5-methylpyrimidin-4-yl)benzamide] | 5.65 | 33.5 | – | –
27 | Cc1cnc(Nc2cnn(C3CCOCC3)c2)nc1-c1ccc(C(=O)NCC(C)(C)C#N)cc1 [Example 133, N-(2-cyano-2-methylpropyl)-4-(5-methyl-2-((1-(tetrahydro-2H-pyran-4-yl)-1H-pyrazol-4-yl)amino)pyrimidin-4-yl)benzamide] | 18.9 | 35.1 | – | –
